Experiments:
Assay type in all cases: in vivo
Giant ragweed (AMBTR) [1] = test: Example 3 field test, pre-plant treatment followed by in-crop glyphosate: weed control; settings: 57 days after first treatment; pre-plant (glyphosate 870; I.7 25; I.7 + glyphosate 25 + 870; I.7 + imazethapyr 25 + 70 g/ha), followed by glyphosate 870 g/ha at 42 DAT
Description: (§1) The phenyluracils I and/or the other active ingredients according to the present invention were formulated in a suitable way, either separately or in mixture, e.g. as emulsifiable concentrates (EC), soluble concentrates (SL), suspo-emulsions (SE), suspension concentrates (SC) or water-dispersible granules (WG). The formulation(s) were suspended or emulsified in water as a distribution medium immediately prior to spraying. Afterwards, the aqueous mixture was evenly sprayed on the test plots by means of finely distributing nozzles.
(§2) The test plots were of uniform size (typically between 14 and 37 square meters, each) and the distribution of treated and untreated plots was organized according to a randomised bloc design. Crops were sown in rows at a season which was typical for the region and the crop according to usual farm practice. Weeds were not sown but germinated according to the natural infestation.
(§3) For pre-plant and pre-plant burn-down treatments, the plots were treated before the crop was planted, typically 7 to 28 days prior to planting. For pre-emergence treatments, the plots were treated at planting (plus or minus two days) but before emergence. For post-emergence or in-crop treatments, the plots were treated after the emergence of the weed or crop, typically 20 to 50 days after planting. […]

[2] = test system: Common lambsquarters (CHEAL); test: as above; settings: 57 days after first treatment; pre-plant (glyphosate 870; I.7 25; I.7 + glyphosate 25 + 870; I.7 + imazethapyr 25 + 70 g/ha), followed by glyphosate 870 g/ha at 42 DAT
Description: as §1, §2, §3

[3] = test system: glyphosate resistant soybeans; test: Example 2 field test, pre-plant burn-down treatment followed by in-crop glyphosate: phytotoxicity in crop; settings: 86 days after first treatment; pre-plant burn-down (glyphosate 870 g/ha or I.7 50 g/ha), followed by glyphosate 870 g/ha at 53 DAT; crop planted at 8 DAT
Description: as §1, §2, §3

[4] = test system: glyphosate resistant soybeans; test: Example 1 field test, pre-plant treatment: phytotoxicity in crop; settings: 44 days after treatment, crop planted at 15 DAT, use rate g/ha: glyphosate 870, I.7 25, I.7 + glyphosate 25 + 870, I.7 + imazethapyr 25 + 70, 0 = no damage, 100 = complete destruction
Description: as §1, §2, §3

Giant ragweed (AMBTR) [5] = test: Example 2 field test, pre-plant burn-down treatment followed by in-crop glyphosate: weed control; settings: 86 days after first treatment; pre-plant burn-down (glyphosate 870 g/ha or I.7 50 g/ha), followed by glyphosate 870 g/ha at 53 DAT
Description: as §1, §2
(§4) For pre-plant and pre-plant burn-down treatments, the plots were treated before the crop was planted, typically 7 to 28 days prior to planting. For pre-emergence treatments, the plots were treated at planting (plus or minus two days) but before emergence. For post-emergence or in-crop treatments, the plots were treated after the emergence of the weed or crop, typically 20 to 50 days after planting.
(§5) The evaluation of the damage caused by the phenyluracils I and/or the other active ingredients according to the present invention was carried out using a scale from 0 to 100%, compared to the untreated control plots. Here, 0 means no damage and 100 means complete destruction of the plants of a respective weed or crop species.
(§6) Weed control in glyphosate resistant soybeans 86 days after the first treatment; pre-plant burn-down treatment followed by an in-crop glyphosate treatment at 53 DAT; field test.
(§7) In this example, glyphosate (potassium salt) was formulated as a 540 g/l SL and phenyluracil I.7 as a 120 g/l EC. […]

Velvetleaf (ABUTH) [6] = test: as above; settings: 86 days after first treatment; pre-plant burn-down (glyphosate 870 g/ha or I.7 50 g/ha), followed by glyphosate 870 g/ha at 53 DAT
Description: as §1, §2, §4, §5, §6, §7

[7] = test system: Common lambsquarters (CHEAL); test: as above; settings: 86 days after first treatment; pre-plant burn-down (glyphosate 870 g/ha or I.7 50 g/ha), followed by glyphosate 870 g/ha at 53 DAT
Description: as §1, §2, §4, §5, §6, §7

Giant ragweed (AMBTR) [8] = test: Example 1 field test, pre-plant treatment: weed control; settings: 44 days after treatment, use rate g/ha: glyphosate 870, I.7 25, I.7 + glyphosate 25 + 870, I.7 + imazethapyr 25 + 70
Description: as §1, §2, §3

Velvetleaf (ABUTH) [9] = test: as above; settings: 44 days after treatment, use rate g/ha: glyphosate 870, I.7 25, I.7 + glyphosate 25 + 870, I.7 + imazethapyr 25 + 70
Description: as §1, §2, §3

[10] = test system: glyphosate resistant soybeans; test: Example 3 field test, pre-plant treatment followed by in-crop glyphosate: phytotoxicity in crop; settings: 57 days after first treatment; pre-plant (glyphosate 870; I.7 25; I.7 + glyphosate 25 + 870; I.7 + imazethapyr 25 + 70 g/ha), followed by glyphosate 870 g/ha at 42 DAT; crop planted at 12 DAT
Description: as §1, §2, §3

O=C(O)CNCP(=O)(O)O [Glyphosate, glyphosate]
Weed control (% control) Giant ragweed (AMBTR) (Giant ragweed (AMBTR) [1]): 72%
Weed control (% control) Common lambsquarters (CHEAL) [2]: 83%
Phytotoxicity in glyphosate resistant soybeans (% damage) [3]: 0%
Phytotoxicity in glyphosate resistant soybeans (% damage) [4]: 0%
Weed control (% control) Giant ragweed (AMBTR) (Giant ragweed (AMBTR) [5]): 86%
Weed control (% control) Velvetleaf (ABUTH) (Velvetleaf (ABUTH) [6]): 91%
Weed control (% control) Common lambsquarters (CHEAL) [7]: 89%
Weed control (% control) Giant ragweed (AMBTR) (Giant ragweed (AMBTR) [8]): 86%
Weed control (% control) Velvetleaf (ABUTH) (Velvetleaf (ABUTH) [9]): 17%
Phytotoxicity in glyphosate resistant soybeans (% damage) [10]: 0%
